# Assay results from patent US11000056B2, “Bioactive serum fraction from achachairu (Garcinia humilis) which is free of benzophenone and proteins” (ISP Investments LLC, priority 2015, dated 2021).
# How the values were obtained:
# [1] = tested on: endocrine (androgenic/estrogenic) activity; details: cited from earlier work
# [2] = laboratory animals; cited from earlier work
# [3] = oral and dermal routes; cited from earlier work
# IL-18 = test: IL18/Baseline, skin sensitization potential in HEK; format: cell-based, human; details: HEK cultures, positive control
# Experimental: It is possible for a test article to not be cytotoxic, and yet be unsafe due to provoking an allergic reaction upon skin contact. Typically, initial exposure to an allergen sensitizes the immune system, and following exposures cause an allergic response. […] We therefore evaluated IL-18 production in HEK treated with test articles to determine their sensitization potential.
# Normal human adult epidermal keratinocytes (HEK) were cultured as described in Example 6 above. […] The cell lysates were collected, and IL-18 was quantified using Human IL-18 ELISA Kit (Catalog #7620, produced by MBL International Co., Woburn, Mass., USA). […] Fold changes of IL-18 levels between test articles and respective vehicle controls were calculated and compared to pPD (positive control). […]
Compound,Anti-estrogenic activity (in words) [1],Anti-androgenic activity (in words) ([1]; receptor binding assay),Estrogenic activity (in words) ([1]; receptor binding assay),Hormonal activity (in words) [2],Absorption (in words) [3],IL-18 induction compared to vehicle control (in words) (IL-18)
"COc1ccc(C(=O)c2ccccc2)c(O)c1 [BP-3, Benzophenone-3]",anti-estrogenic activity,strong anti-androgenic,weak estrogenic,weak hormonal activity,rapidly absorbed via oral and dermal routes,–
"Nc1ccc(N)cc1 [benchmark sensitizer, para-phenylenediamine]",–,–,–,–,–,significantly induced IL-18
